The values below come from article PMC11352469, “Comprehensive Analysis of Kisspeptin Signaling: Effects on Cellular Dynamics in Cervical Cancer” (Biomolecules, 2024).

Residues, ends and D or L forms follow the SMILES beside them.

In assay [1] the target is T1, kisspeptin receptor (Homo sapiens, UniProt Q969F8). The assay is described as follows: BRET assay, β-arrestin1 recruitment. It counts as cell-based. Further details: expressed in transfected cells; host or cells: HeLa cells, transient transfection with PEI. Particulars: HeLa cells, β-arrestin1 recruitment. The source says: (§1) The Bioluminescence Resonance Energy Transfer (BRET) assay was developed as described before. Briefly, HeLa cells were transiently transfected with these plasmids encoding for the GPCR, Gα subunit, the G protein effectors tagged with the BRET donor (RlucII), and the plasma membrane anchor (the CAAX motif from KRas, which includes a prenylation and a polybasic domain) fused to the BRET acceptor rGFP using Polietilendiimine (PEI) as described in Avet et al.. Fourty-eight hours post-transfection, cells were incubated with the coelenterazine substrate for Renilla luciferase Prolume Purple, stimulated with kisspeptin receptor agonists for 10 min and BRET signals were measured using a dual-filter luminometer (SPARK, Tecan Life Sciences, Männedorf, Switzerland). BRET ratios were calculated by dividing the acceptor emission by the donor emission, providing a quantitative measure for […]. Data were analyzed using Prism 8.0 (GraphPad) to determine interaction dynamics under various experimental conditions.

In assay [2] the target is T1, kisspeptin receptor. The assay is described as follows: BRET assay, G15 pathway. Also noted: expressed in transfected cells; host or cells: HeLa cells, transient transfection with PEI. Format: cell-based. The conditions noted are these: HeLa cells, G15 pathway; for EC50: read-out: pEC50 G15 (converted).
Excerpt: as §1

In another assay the test system is AGS cells. The assay is described as follows: In vitro wound healing assay, AGS. It counts as cell-based, human. The conditions noted are these: difference to control less marked. On the procedure: (§2) Cells (3 × 10^5 cells/well) were seeded in 24-well plates for 24 h. Then, a sterile pipette tip of 20–200 μL was held vertically to create a cross-shaped scratch in each well. The detached cells were carefully removed by washing with 500 μL PBS and shaking at 500 rpm for 5 min. Then, 500 μL of medium containing the peptides to be tested was added to each well and incubated for 72 h. Prior taking each image, the plate was washed with 500 μL of PBS and gently shaken for 30 s. Then, 500 μL of medium containing the corresponding peptides was added to each well again and images were taken at 24 h intervals using a Primovert microscope at 4× magnification and 1/3700 s exposure time. Wound opening areas were obtained using Prism 8.0 software (GraphPad).

Assay [3] relates to HeLa cells. Nature of the assay: In vitro wound healing assay, HeLa. Format: cell-based, human. Particulars: particularly at 48 and 72 h. On the procedure: as §2
The target in assay [4] is T1, kisspeptin receptor. Nature of the assay: BRET assay, G14 pathway. It counts as cell-based. Further details: expressed in transfected cells; host or cells: HeLa cells, transient transfection with PEI. Particulars: HeLa cells, G14 pathway; for EC50: read-out: pEC50 G14 (converted).
Excerpt: as §1

Assay [5] concerns PC3 cells. Nature of the assay: Cytotoxicity MTT assay, PC3. It counts as cell-based, human. The conditions noted are these: 48 h. The procedure:
(§3) Human cervical adenocarcinoma (HeLa) cells (cat# CRM-CCL-2) were obtained from the American Type Culture Collection (ATCC, Manassas, VA, USA). Human breast adenocarcinoma (MCF7) cells, Human prostate adenocarcinoma (PC3) cells, Human gastric adenocarcinoma (AGS) cells and Human Embryonic Kidney cells (HEK293T) were kindly provided by the Universidad Industrial de Santander. HeLa, MCF7, and HEK293T cells were cultured in DMEM medium supplemented with 10% FBS (fetal bovine serum), 1% penicillin/streptomycin. PC3 and AGS cells were cultured in RPMI medium supplemented with 10% FBS, 1% penicillin/streptomycin. All cells were maintained at 37 °C and 5% CO2.
(§4) 15,000 cells per well were plated in 96-well plates (Greiner, Fisher Scientific, Waltham, MA, USA) using a fully complemented medium, and incubated at 37 °C. Following a 24 h period, cells underwent serum starvation before being treated with KP10 and its analogs at concentrations of 10, 100, 250, and 500 nM for 48 h. Subsequently, each well received 100 µL of MTT solution (0.5 mg/mL), and the plates were incubated at 37 °C for 3 h. After adding the MTT solvent and further incubation for 15 min, the resultant absorbance was measured at 590 nm using a BioTech RT-2100C microplate reader. Data analysis was performed using Prism 8.0 software (GraphPad).

In assay [6] the target is T1, kisspeptin receptor. The assay is described as follows: BRET assay, β-arrestin2 recruitment. Format: cell-based. Further details: expressed in transfected cells; host or cells: HeLa cells, transient transfection with PEI. The conditions noted are these: HeLa cells, β-arrestin2 recruitment.
Excerpt: as §1

The next assay deals with MCF7 cells. The assay is described as follows: In vitro wound healing assay, MCF7. Format: cell-based, human. The conditions noted are these: MCF7, particularly at 48 and 72 h. The procedure: as §2
The target in assay [7] is T1, kisspeptin receptor. The assay is described as follows: BRET assay, Gz pathway. It counts as cell-based. Further details: expressed in transfected cells; host or cells: HeLa cells, transient transfection with PEI. The conditions noted are these: HeLa cells; for Δ(logτ/KA) bias factor, Gαz pathway: operational model, KP10 as reference.
Excerpt: as §1, with “conditions. The bias factor for the kisspeptin analogs was calculated using the operational model of agonism as described by Kenakin [31]. Emax and EC50 values were determined for each signaling pathway (e.g., G protein activation, β-arrestin recruitment). The data were then fitted to the operational model to estimate transduction coefficients (τ). The bias factor (ΔLog(τ/KA)) was calculated by comparing the τ/KA values for each pathway relative to a reference pathway. This method quantifies signaling bias by evaluating relative efficacy and potency across pathways. Statistical significance of the observed bias was assessed to ensure the differences were not due to random variation. All calculations and analyses were performed using GraphPad Prism software (GraphPad, San Diego, CA, USA).” for “conditions.”

Assay [8] concerns the target T1, kisspeptin receptor. Nature of the assay: BRET assay, Gq pathway. Also noted: expressed in transfected cells; host or cells: HeLa cells, transient transfection with PEI. Format: cell-based. Particulars: HeLa cells, Gq pathway.
Excerpt: as §1

The target of assay [9] is T1, kisspeptin receptor. The assay is described as follows: BRET assay, G11 pathway. Format: cell-based. Also noted: expressed in transfected cells; host or cells: HeLa cells, transient transfection with PEI. Particulars: HeLa cells, G11 pathway; for EC50: read-out: pEC50 G11 (converted).
Excerpt: as §1

The subject of assay [10] is PC3 cells. The assay is described as follows: In vitro wound healing assay, PC3. It counts as cell-based, human. Particulars: PC3, difference to control less marked. The procedure: as §2
The next assay relates to HEK293T cells. The assay is described as follows: Cytotoxicity MTT assay, HEK293T. Particulars: 48 h. Format: cell-based, human. The procedure:
as §3, §4

The test system of assay [11] is HeLa cells. The assay is described as follows: Cytotoxicity MTT assay, HeLa. It counts as cell-based, human. The conditions noted are these: 48 h. The procedure: as §3, §4
Assay [12] concerns the target T1, kisspeptin receptor.
Assay [13] has as its target T1, kisspeptin receptor. This is another data set of the same source.
The mark [14] stands for this setting: read-out: pEC50 β-arrestin2 (converted).
The mark [15] stands for this setting: Gz pathway, mean of 4 experiments, read-out: EC50(M) Gz.
Where [16] appears, read: Gz pathway, read-out: pEC50 Gz (converted).

T1 sequence (Q969F8 whole entry, the tested form may be a part): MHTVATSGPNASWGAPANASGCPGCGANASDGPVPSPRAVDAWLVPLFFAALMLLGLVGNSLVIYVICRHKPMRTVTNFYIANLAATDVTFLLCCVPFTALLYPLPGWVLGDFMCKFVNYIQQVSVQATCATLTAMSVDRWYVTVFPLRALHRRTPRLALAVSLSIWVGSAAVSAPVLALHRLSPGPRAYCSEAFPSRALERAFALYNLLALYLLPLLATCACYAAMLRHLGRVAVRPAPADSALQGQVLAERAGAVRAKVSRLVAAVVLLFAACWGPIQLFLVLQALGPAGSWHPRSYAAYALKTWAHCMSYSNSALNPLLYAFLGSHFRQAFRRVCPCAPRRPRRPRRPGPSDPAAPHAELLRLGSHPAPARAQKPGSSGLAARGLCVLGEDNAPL

With `CC(C)C[C@H](NC(=O)CNC(=O)[C@H](Cc1ccccc1)NC(=O)[C@H](CO)NC(=O)[C@H](C)NC(=O)[C@H](Cc1c[nH]c2ccccc12)NC(=O)[C@H](CC(N)=O)NC(=O)[C@@H](N)Cc1ccc(O)cc1)C(=O)N[C@@H](CCCNC(=N)N)C(=O)N[C@@H](Cc1ccccc1)C(N)=O` [Ala^4-KP10] (H-YNWASFGLRF-NH2; N-terminus assumed), the maximal response (Emax) worked out at 69.1% at kisspeptin receptor [1] (KP10 = 100%); 101% at kisspeptin receptor [2] (KP10 = 100%); 97.7% on kisspeptin receptor [4] (KP10 = 100%); 79% at kisspeptin receptor [6] (KP10 = 100%); 84.7% at kisspeptin receptor [7] (Gz pathway, KP10 = 100%); 104% on kisspeptin receptor [8] (KP10 = 100%). The molecule also showed an Emax at kisspeptin receptor [9] (KP10 = 100%) of 106%. Moreover, the EC50 at kisspeptin receptor [1] (mean of 4 experiments) is 13000 nM; at kisspeptin receptor [2], 339 nM; on kisspeptin receptor [4] it was 355 nM; at kisspeptin receptor [6] (mean of 4 experiments, read-out: EC50(M) β-arrestin2), 2.58e-06 M; on kisspeptin receptor [6] (setting [14]), 2.51e-06 M; at kisspeptin receptor [7] (setting [15]) it was 1.1e-06 M. In addition, the EC50 at kisspeptin receptor [7] (setting [16]) was 9.12e-07 M; on kisspeptin receptor [8] it was 214 nM; on kisspeptin receptor [9], 447 nM. For the same molecule, the “migration inhibition (wound closure)” value is listed as “more inhibitory treatment” with AGS cells, “most pronounced effects” with HeLa cells [3], “most pronounced effects” with MCF7 cells and “more inhibitory treatment” in the assay with PC3 cells [10]. In addition, in the assay on PC3 cells [5], the “pIC50 PC3” value turned out to be 2.541. Besides, the “Δ(logτ/KA) bias factor, Gαz pathway” value on kisspeptin receptor [7] is listed as −1.66.
Take `CC(C)C[C@H](NC(=O)CNC(=O)[C@H](Cc1ccccc1)NC(=O)[C@H](CO)NC(=O)[C@H](CC(N)=O)NC(=O)[C@H](Cc1c[nH]c2ccccc12)NC(=O)[C@H](CC(N)=O)NC(=O)[C@@H](N)Cc1ccc(O)cc1)C(=O)N[C@@H](CCCN=C(N)N)C(=O)N[C@@H](Cc1ccccc1)C(N)=O` [KP-10, kisspeptin-10, reference compound]: the EC50 at kisspeptin receptor [2] is 26.9 nM; on kisspeptin receptor [4], 33.1 nM; at kisspeptin receptor [6] (setting [14]) it was 3.72e-07 M; on kisspeptin receptor [7] (setting [15]), 1.63e-07 M; at kisspeptin receptor [7] (setting [16]), 1.35e-07 M; at kisspeptin receptor [8], 13.5 nM. On kisspeptin receptor [9], the EC50 was 38 nM. Further, the “pIC50 PC3” value in the assay with PC3 cells [5] is 2.678. The “pIC50 HEK293T” value in the assay with HEK293T cells is reported as 2.489. Also, the “Δ(logτ/KA) bias factor, Gαz pathway” value at kisspeptin receptor [7] is 0.
With “Ala^1-KP10: Ala-Asn-Trp-Asn-Ser-Phe-Gly-Leu-Arg-Phe; KP10 Ala-scan analog (ANWNSFGLRF; printed: Ala-Asn-Trp-Asn-Ser-Phe-Gly-Leu-Arg-Phe)”, in the assay on HeLa cells [11], the “pIC50 HeLa” value was determined as 2.483. The “pIC50 PC3” value in the assay on PC3 cells [5] was 2.475. Moreover, the “pIC50 HEK293T” value with HEK293T cells worked out at 2.311.
As to “Ala^9-KP10: Tyr-Asn-Trp-Asn-Ser-Phe-Gly-Leu-Ala-Phe; KP10 Ala-scan analog (YNWNSFGLAF; printed: Tyr-Asn-Trp-Asn-Ser-Phe-Gly-Leu-Ala-Phe)”, the “pIC50 HeLa” value with HeLa cells [11] stood at 2.429. Further, the “pIC50 PC3” value in the assay with PC3 cells [5] is listed as 2.295.
Turning to “Ala^10-KP10: Tyr-Asn-Trp-Asn-Ser-Phe-Gly-Leu-Arg-Ala; KP10 Ala-scan analog (YNWNSFGLRA; printed: Tyr-Asn-Trp-Asn-Ser-Phe-Gly-Leu-Arg-Ala)”, in the assay with HeLa cells [11], the “pIC50 HeLa” value stood at 2.493. In addition, the “pIC50 PC3” value in the assay on PC3 cells [5] stood at 1.739.

B1: Ala^3-KP10 (peptide)
peptide: YNANSFGLRF
In the assay with kisspeptin receptor [12], B1 registered an EC50 of β-arrestin1 recruitment, BRET biosensor in transfected HeLa cells of 1190 nM and an EC50 of β-arrestin2 recruitment, BRET biosensor in transfected HeLa cells of 1430 nM. The EC50 of Gαz pathway activation, effector-RlucII / rGFP-CAAX BRET biosensor in transfected HeLa cells, 10 min stimulation in the assay with kisspeptin receptor [13] was determined as 646 nM.

B2: Ala^4-KP10 (peptide)
peptide: YNWASFGLRF
As to B2, in the assay with kisspeptin receptor [12], the EC50 of β-arrestin1 recruitment, BRET biosensor in transfected HeLa cells was 13000 nM and the EC50 of β-arrestin2 recruitment, BRET biosensor in transfected HeLa cells was 2580 nM. In addition, in the assay with kisspeptin receptor [13], the EC50 of Gαz pathway activation, effector-RlucII / rGFP-CAAX BRET biosensor in transfected HeLa cells, 10 min stimulation was determined as 1100 nM.
